Results as given in paper PMC3913857, “Regorafenib in Japanese patients with solid tumors: phase I study of safety, efficacy, and pharmacokinetics” (Investigational New Drugs, 2013).
Marks after values point to notes of the source that are not given here.

Assay: clinical
Parameters: species or system Japanese patients
Conditions: in vivo
Protocol: Patients who provided at least one evaluable pharmacokinetic sample were eligible for pharmacokinetic analyses.
Plasma concentrations of regorafenib and its metabolites were determined by fully validated liquid chromatography–tandem mass spectrometry after protein precipitation with acetonitrile/ammonium acetate buffer containing the internal standards [^2H3 ^15N] BAY 73-4506 (for regorafenib), [^2H3 ^15N] […] BAY 81-8752 (for the M5 metabolite).

AUC from 0 to 24 h of metabolite as share of regorafenib (human): 21.5% | t 1/2 (terminal half life) (human): 57.5 (33.7) h | t max (human): 35.6 (0.6–73.2) h | AUC (human, po, 160 mg): 3,441.8 (112.0)^a μg.h/L | AUC0–24 (human, po, 160 mg): 380.5/164.2 (112.0)^a μg.h/L | C max (human, po, 160 mg): 31.1 (167.3)^a μg/L | t max (human, po, 160 mg): 24.0 (2.8–71.3)^a h | Change in t max and t 1/2 between single dosing and 21-day multiple dosing: no significant change
SMILES: NC(=O)c1cc(Oc2ccc(NC(=O)Nc3ccc(Cl)c(C(F)(F)F)c3)c(F)c2)cc[n+]1[O-] [M5]
